According to patent US10717716B2, “1,3,4-oxadiazole derivative compounds as histone deacetylase 6 inhibitor, and the pharmaceutical composition comprising the same” (Chong Kun Dang Pharmaceutical Corp., priority 2015, dated 2020):

Biological target: T1, human recombinant HDAC6 (Homo sapiens, UniProt Q9UBN7)
T1 construct: purchased Calbiochem 382180
T1 sequence (Q9UBN7 1-1215): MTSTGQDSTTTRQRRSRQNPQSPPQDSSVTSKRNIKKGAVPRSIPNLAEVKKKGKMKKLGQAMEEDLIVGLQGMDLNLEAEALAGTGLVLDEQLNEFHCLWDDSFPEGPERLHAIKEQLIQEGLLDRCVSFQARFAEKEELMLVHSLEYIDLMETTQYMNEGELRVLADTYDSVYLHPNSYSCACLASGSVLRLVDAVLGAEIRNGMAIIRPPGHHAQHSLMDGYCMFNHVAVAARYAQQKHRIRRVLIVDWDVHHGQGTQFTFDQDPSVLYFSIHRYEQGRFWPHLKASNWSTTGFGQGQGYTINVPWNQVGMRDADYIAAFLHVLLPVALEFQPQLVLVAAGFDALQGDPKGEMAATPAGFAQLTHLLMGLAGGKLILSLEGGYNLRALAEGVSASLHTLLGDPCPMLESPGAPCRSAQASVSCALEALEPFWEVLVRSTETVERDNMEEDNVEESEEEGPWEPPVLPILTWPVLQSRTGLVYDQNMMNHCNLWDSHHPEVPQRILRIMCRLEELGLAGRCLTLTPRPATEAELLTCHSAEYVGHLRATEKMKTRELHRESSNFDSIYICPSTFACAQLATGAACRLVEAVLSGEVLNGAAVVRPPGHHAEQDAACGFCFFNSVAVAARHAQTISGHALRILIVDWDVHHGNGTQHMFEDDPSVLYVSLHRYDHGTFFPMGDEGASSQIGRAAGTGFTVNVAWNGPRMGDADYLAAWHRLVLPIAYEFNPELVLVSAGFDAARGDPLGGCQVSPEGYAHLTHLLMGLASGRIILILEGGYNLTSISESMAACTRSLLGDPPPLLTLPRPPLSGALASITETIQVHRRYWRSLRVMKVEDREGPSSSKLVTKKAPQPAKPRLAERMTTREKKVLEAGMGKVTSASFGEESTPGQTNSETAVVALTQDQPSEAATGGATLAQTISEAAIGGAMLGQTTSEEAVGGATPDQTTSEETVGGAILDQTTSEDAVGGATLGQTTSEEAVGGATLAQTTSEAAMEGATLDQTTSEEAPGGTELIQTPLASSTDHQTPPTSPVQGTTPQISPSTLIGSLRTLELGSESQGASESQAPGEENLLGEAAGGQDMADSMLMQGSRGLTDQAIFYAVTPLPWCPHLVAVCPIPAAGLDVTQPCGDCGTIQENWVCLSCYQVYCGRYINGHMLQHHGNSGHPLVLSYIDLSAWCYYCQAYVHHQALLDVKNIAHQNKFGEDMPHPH
Assay: HDAC6 enzyme activity inhibition assay (HDAC Fluorimetric Drug Discovery Kit)
Assay type: biochemical
Details: for HDAC6 selectivity (fold): HDAC6 over HDAC1; for IC50: human recombinant HDAC6, same protocol as HDAC1, read-out: HDAC6
In short: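 Fluorimetric deacetylase assay: 5-fold serial compound dilutions, 0.3 μg recombinant human enzyme (HDAC1 or HDAC6, same protocol), 10 μM Fluor de Lys-SIRT1 substrate, 60 min at 30 °C. Signal developed 30 min, measured at 360/460 nm; IC50 values derived.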

Which results are given for `O=C(N1CCS(=O)(=O)CC1)N(Cc1ccc(-c2nnc(C(F)(F)F)o2)cn1)c1ccccc1` [Compound 21372, N-phenyl-N-((5-(5-(trifluoromethyl)-1,3,4-oxadiazol-2-yl)pyridin-2-yl)methyl)thiomorpholine-4-carboxamide 1,1-dioxide]?
HDAC6 selectivity (fold): 132 fold; IC50: 76 nM

For `O=C(N1CCOCC1)N(Cc1ccc(-c2nnc(C(F)(F)F)o2)cc1)c1cccc(F)c1` [Compound 21407, N-(3-fluorophenyl)-N-(4-(5-(trifluoromethyl)-1,3,4-oxadiazol-2-yl)benzyl)morpholine-4-carboxamide], which “HDAC6 selectivity (fold)” value is on record?
Its value is 71 fold.

What about the IC50 of the same molecule?
The IC50 was 140 nM.

Which results are given for `CN1CCN(c2ccc(N(Cc3ccc(-c4nnc(C(F)F)o4)cn3)C(=O)N3CCS(=O)(=O)CC3)cc2)CC1` [Compound 21628, N-((5-(5-(difluoromethyl)-1,3,4-oxadiazol-2-yl)pyridin-2-yl)methyl)-N-(4-(4-methylpiperazin-1-yl)phenyl)thiomorpholine-4-carboxamide 1,1-dioxide]?
HDAC6 selectivity (fold): 37 fold; IC50: 271 nM

Which “HDAC6 selectivity (fold)” value does the source give for `O=C(N1CCOCC1)N(Cc1ccc(-c2nnc(C(F)F)o2)cc1)c1ccccc1` [Compound 21325, N-(4-(5-(difluoromethyl)-1,3,4-oxadiazol-2-yl)benzyl)-N-phenylmorpholine-4-carboxamide] here?
Its value is 204 fold.

And the IC50?
The IC50 was 49 nM.

What does the source list for `Cc1ccccc1N(Cc1ccc(-c2nnc(C(F)(F)F)o2)cn1)C(=O)N1CCN(C)CC1` [Compound 21633, 4-Methyl-N-(o-tolyl)-N-((5-(5-(trifluoromethyl)-1,3,4-oxadiazol-2-yl)pyridin-2-yl)methyl)piperazine-1-carboxamide]?
HDAC6 selectivity (fold): 58 fold; IC50: 173 nM

What does the source list for `O=C(N1CCOCC1)N(Cc1ccc(-c2nnc(C(F)(F)F)o2)cc1)c1ccc(C(F)(F)F)cc1` [Compound 21406, N-(4-(5-(trifluoromethyl)-1,3,4-oxadiazol-2-yl)benzyl)-N-(4-(trifluoromethyl)phenyl)morpholine-4-carboxamide]?
HDAC6 selectivity (fold): 16 fold; IC50: 619 nM

With `CN(C)[C@@H]1CCN(C(=O)N(Cc2ccc(-c3nnc(C(F)(F)F)o3)cc2F)c2cccc(Cl)c2F)C1` [Compound 21645, (R)—N-(3-chloro-2-fluorophenyl)-3-(dimethylamino)-N-(2-fluoro-4-(5-(trifluoromethyl)-1,3,4-oxadiazol-2-yl)benzyl)pyrrolidine-1-carboxamide] as the molecule, how does the “HDAC6 selectivity (fold)” value read?
Its value is 46 fold.

And the IC50?
Its IC50 is 216 nM.

For `O=C(N1CCS(=O)(=O)CC1)N(Cc1ccc(-c2nnc(C(F)F)o2)cn1)c1cccc(Cl)c1` [Compound 21626, N-(3-chlorophenyl)-N-((5-(5-(difluoromethyl)-1,3,4-oxadiazol-2-yl)pyridin-2-yl)methyl)thiomorpholine-4-carboxamide 1,1-dioxide], which “HDAC6 selectivity (fold)” value is on record?
Its value is 645 fold.

What about the IC50 of the same molecule?
The IC50 was 16 nM.

What does the source list for `CCN(CCN(C)C)C(=O)N(Cc1ccc(-c2nnc(C(F)F)o2)cc1)c1ccccc1` [Compound 21578, 1-(4-(5-(Difluoromethyl)-1,3,4-oxadiazol-2-yl)benzyl)-3-(2-(dimethylamino)ethyl)-3-ethyl-1-phenylurea]?
HDAC6 selectivity (fold): 233 fold; IC50: 43 nM

Which results are given for `O=C(N1CCS(=O)(=O)CC1)N(Cc1ccc(-c2nnc(C(F)F)o2)cc1F)c1ccc(Cl)cc1` [Compound 21809, N-(4-chlorophenyl)-N-(4-(5-(difluoromethyl)-1,3,4-oxadiazol-2-yl)-2-fluorobenzyl)thiomorpholine-4-carboxamide 1,1-dioxide]?
HDAC6 selectivity (fold): 174 fold; IC50: 57 nM

How did the “HDAC6 selectivity (fold)” value turn out when `CCN1CC2(CCN(C(=O)N(Cc3ccc(-c4nnc(C(F)F)o4)cc3F)c3ccc4cnn(C)c4c3)CC2)C1` [Compound 21765, N-(4-(5-(Difluoromethyl)-1,3,4-oxadiazol-2-yl)-2-fluorobenzyl)-2-ethyl-N-(1-methyl-1H-indazol-6-yl)-2,7-diazaspiro[3.5]nonane-7-carboxamide] was run?
The value was 88 fold.

And the IC50?
Its IC50 is 114 nM.

For `Cc1ccc(N(Cc2ccc(-c3nnc(C(F)(F)F)o3)cc2)C(=O)N2CCS(=O)(=O)CC2)cc1` [Compound 21445, N-(p-tolyl)-N-(4-(5-(trifluoromethyl)-1,3,4-oxadiazol-2-yl)benzyl)thiomorpholine-4-carboxamide 1,1-dioxide], which “HDAC6 selectivity (fold)” value is on record?
The value was 33 fold.

And the IC50?
The IC50 was 303 nM.

How did the “HDAC6 selectivity (fold)” value turn out when `O=C(N1CCOCC1)N(Cc1ccc(-c2nnc(C(F)F)o2)cc1F)c1ccc(F)c(Cl)c1` [Compound 21929, N-(3-chloro-4-fluorophenyl)-N-(4-(5-(difluoromethyl)-1,3,4-oxadiazol-2-yl)-2-fluorobenzyl)morpholine-4-carboxamide] was run?
The value was 176 fold.

What about the IC50 of the same molecule?
Its IC50 is 57 nM.

Which results are given for `O=C(NCCN1CCCC1)N(Cc1ccc(-c2nnc(C(F)F)o2)cc1F)c1ccccc1` [Compound 21956, 1-(4-(5-(Difluoromethyl)-1,3,4-oxadiazol-2-yl)-2-fluorobenzyl)-1-phenyl-3-(2-(pyrrolidin-1-yl)ethyl)urea]?
HDAC6 selectivity (fold): 60 fold; IC50: 167 nM

What does the source list for `O=C(NCCN1CCCOCC1)N(Cc1ccc(-c2nnc(C(F)F)o2)cc1F)c1ccccc1` [Compound 21986, 3-(2-(1,4-Oxazepan-4-yl)ethyl)-1-(4-(5-(difluoromethyl)-1,3,4-oxadiazol-2-yl)-2-fluorobenzyl)-1-phenylurea]?
HDAC6 selectivity (fold): 207 fold; IC50: 48 nM

For `COc1ccccc1CCN(Cc1ccc(-c2nnc(C(F)F)o2)cc1F)C(=O)N1CCOCC1` [Compound 21557, N-(4-(5-(difluoromethyl)-1,3,4-oxadiazol-2-yl)-2-fluorobenzyl)-N-(2-methoxyphenethyl) morpholine-4-carboxamide], which “HDAC6 selectivity (fold)” value is on record?
The value was 41 fold.

And the IC50?
The IC50 was 244 nM.

For `COc1ccccc1N(Cc1ccc(-c2nnc(C(F)(F)F)o2)cc1)C(=O)N1CCS(=O)(=O)CC1` [Compound 21440, N-(2-methoxyphenyl)-N-(4-(5-(trifluoromethyl)-1,3,4-oxadiazol-2-yl)benzyl)thiomorpholine-4-carboxamide 1,1-dioxide], which “HDAC6 selectivity (fold)” value is on record?
The value was 37 fold.

What about the IC50 of the same molecule?
The IC50 was 267 nM.

For `O=C(N1CCOCC1)N(Cc1ccc(-c2nnc(C(F)F)o2)cn1)c1ccc(F)c(Cl)c1` [Compound 21619, N-(3-chloro-4-fluorophenyl)-N-((5-(5-(difluoromethyl)-1,3,4-oxadiazol-2-yl)pyridin-2-yl)methyl)morpholine-4-carboxamide], which “HDAC6 selectivity (fold)” value is on record?
The value was 517 fold.

And the IC50?
The IC50 was 19 nM.

With `Cc1ccc(N(Cc2ccc(-c3nnc(C(F)F)o3)cc2F)C(=O)N2CCN(C)CC2)cc1` [Compound 21471, N-(4-(5-(difluoromethyl)-1,3,4-oxadiazol-2-yl)-2-fluorobenzyl)-4-methyl-N-(p-tolyl)piperazine-1-carboxamide] as the molecule, how does the “HDAC6 selectivity (fold)” value read?
Its value is 213 fold.

And the IC50?
Its IC50 is 47 nM.

How did the “HDAC6 selectivity (fold)” value turn out when `O=C(N1CCS(=O)(=O)CC1)N(Cc1ccc(-c2nnc(C(F)(F)F)o2)cc1)c1ccccn1` [Compound 21409, N-(pyridin-2-yl)-N-(4-(5-(trifluoromethyl)-1,3,4-oxadiazol-2-yl)benzyl)thiomorpholine-4-carboxamide 1,1-dioxide] was run?
Its value is 33 fold.

What about the IC50 of the same molecule?
The IC50 was 304 nM.

Which results are given for `CC(C)(C)OC(=O)N(Cc1ccc(-c2nnc(C(F)F)o2)cc1)c1ccccc1` [Compound 21568, Tert-butyl (4-(5-(difluoromethyl)-1,3,4-oxadiazol-2-yl)benzyl)(phenyl)carbamate]?
HDAC6 selectivity (fold): 42 fold; IC50: 237 nM

Which “HDAC6 selectivity (fold)” value does the source give for `O=C(N1CCS(=O)(=O)CC1)N(Cc1ccc(-c2nnc(C(F)F)o2)cn1)c1ccc(Oc2ccccc2)cc1` [Compound 21631, N-((5-(5-(difluoromethyl)-1,3,4-oxadiazol-2-yl)pyridin-2-yl)methyl)-N-(4-phenoxyphenyl)thiomorpholine-4-carboxamide 1,1-dioxide] here?
The value was 138 fold.

What about the IC50 of the same molecule?
The IC50 was 72 nM.

What does the source list for `CCN1CCN(C(=O)N(Cc2ccc(-c3nnc(C(F)F)o3)cc2F)c2ccc(F)cc2)CC1` [Compound 21887, N-(4-(5-(Difluoromethyl)-1,3,4-oxadiazol-2-yl)-2-fluorobenzyl)-4-ethyl-N-(4-fluorophenyl)piperazine-1-carboxamide]?
HDAC6 selectivity (fold): 218 fold; IC50: 46 nM
